Data from article PMC4821887, “Identification of chemicals that mimic transcriptional changes associated with autism, brain aging and neurodegeneration” (Nature Communications, 2016).

Experiments:
[1] = system: Rest, Gsta4, Gstm1, Hmox1 transcripts in cortical cultures; test: Quantitative real-time PCR of cluster 2 upregulated genes; format: cell-based, mouse; details: fenamidone 10 μM or indicated doses, 24 h, relative to vehicle
Description: Total RNA was extracted and purified using the RNeasy plus mini kit (Qiagen) following the manufacturer's instructions. RNA was quantified using Nanodrop 1000 (Thermo Scientific) and reverse transcribed using iScript Reverse Transcription Supermix (Bio-Rad). Quantitative real-time PCR analysis was performed in technical duplicates using SYBR Green PCR master mix (Applied Biosystems) in a 7500 Real-Time PCR instrument (Applied Biosystems). An amount of 10 ng of complementary DNA was used in each reaction. Fold change of expression of the target RNA in each treatment condition relative to the untreated sample were calculated by raising 2 to the power of −ΔΔCt. ΔΔCt was calculated by subtracting the ΔCt of the untreated sample to the ΔCt of each treatment condition. The ΔCt of each sample was calculated by subtracting the average Ct of Gapdh to the average Ct of the target RNA. The following primers were used at a final concentration of 0.5 μM:
Rest (F: 5′-[…]-3′, R: 5′-[…]-3′); Gsta4 (F: 5′-[…]-3′, R: 5′-[…]-3′); Gstm1 (F: 5′-[…]-3′, R: 5′-[…]-3′); Hmox1 (F: 5′-[…]-3′, R: 5′-[…]-3′); and Gapdh (F: 5′-[…]-3′, R: 5′-[…]-3′).

cortical neurons = test: Soma morphology (proportion of cells with altered soma morphology) in live-cell imaging; format: cell-based, mouse; details: 2 h treatment, vincristine 500 µM in Supplementary Fig. 10c
[2] = in vivo; cited from earlier work

Q: For `CSC1=N[C@@](C)(c2ccccc2)C(=O)N1Nc1ccccc1` [fenamidone], which “Expression of Nrf2 target antioxidant response genes and Rest (qRT-PCR validation)” value [1] is on record?
A: The value was “Upregulated”.

Q: What about the “Soma swelling / aberrant cell morphology” value (cortical neurons) of the same compound?
A: Its value is “dose dependent”.

Q: What about the “Soma swelling / aberrant cell morphology” value (cortical neurons; listed as Fenamidone) of the same compound?
A: The value was “swelling of neuronal soma”.

Q: And the “Neurotoxicity in a set of assays used by regulatory agencies” value [2]?
A: The value was “No evidence of neurotoxicity”.
